This data set has as its system Daphnia magna genotype pools. The data set can be described thus: Viability of Daphnia magna genotype pools (1999, 1980, 1960) exposed to Carbaryl for four weeks. Format: in vivo. To be noted: Carbaryl 10 μg/L. How it is done: The ability to thrive of different Daphnia magna genotype pools resurrected from 1999, 1980, and 1960, was tested in presence of high concentrations of the carbamate insecticide Carbaryl (10 μg/L). Carbamate pesticides have been used at high levels since the 1970s, and so carbamate pesticides represent a common contaminant to current wastewater.
The three genotype pools were exposed to high concentrations of the carbamate insecticide Carbaryl in replicated large aquaria of 10 L. The aquaria contained borehole water to which a known concentration of Carbaryl was added. Each pool comprised different genotypes but the number of individuals in each pool was identical.
Prior to the exposure, the genotypes were individually cultured for two generations in the following conditions to control for maternal effects and synchronize reproduction: 20° C.; long photoperiod (16:8 light:dark regime); feed daily with 0.8 mg Carbon/L of C. vulgaris; medium was renewed every second day. After this phase, five 24-48 h old juveniles from the second brood of the third generation from 7 genotypes of each pool were randomly assigned to three replicated 10 L aquaria resulting in a total of 105 animals per aquarium (5 juveniles×7 genotypes×3 pools). The aquaria were then exposed to Carbaryl for four weeks (3 clonal generations). […]
The initial occurrence of each pool of genotypes was then compared to the random subset of animals sampled at the end of the experiment and genetically fingerprinted. This allowed to quantify changes in the occurrence of pool of genotypes from the three initially equally inoculated three pools. Changes in the occurrence of each pool of genotypes between the inoculum and the end of the experiment were quantified with a chi-squared test using the “stats” package in R v. […]

The structures appear in SMILES notation.

Consider `CNC(=O)Oc1cccc2ccccc12` [Carbaryl], for which the “change in occurrence of genotypes versus initial inoculum” value reads like this: (1960 pool) “did not experience a significant change in the number of genotypes”; (1980 pool) “significantly decrease in the number of genotypes and almost disappeared”; (1999 pool) “did not experience a significant change in the number of genotypes”.
